Measurements as given in patent US20240115512A1, “PROCESS FOR PREPARING NANOFORMULATION FOR DELIVERY OF BERBAMINE” (priority 2021, published 2024).
Values after ≈ are worked out from the molar mass of the structure shown.

Legend:
Assay in all cases: MIC by serial dilution method
Format in all cases: cell-based
[1] = tested on: Acinetobacter baumannii (ATCC 19606); conditions: ATCC19606
Method: (§1) Berbamine was tested for a panel of bacterial strains including Pseudomonas aeruginosa (ATCC 27853), Acinetobacter baumannii (ATCC 19606), Staphylococcus aureus (ATCC 29213) and clinical isolates of Klebsiella pneumoniae, Staphylococcus epidermidis, Staphylococcus hemolyticus and Burkholderia cepacia complex using serial dilution method. Ceftazidime was used as the standard antibiotic for validating the protocol.

[2] = tested on: Staphylococcus epidermidis (clinical isolate)
Method: as §1

[3] = tested on: Klebsiella pneumoniae (clinical isolate)
Method: as §1

[4] = tested on: Staphylococcus aureus (ATCC 29213); conditions: ATCC29213
Method: as §1

[5] = tested on: Staphylococcus hemolyticus (clinical isolate)
Method: as §1

COc1cc2c3cc1Oc1c(OC)c(OC)cc4c1[C@@H](Cc1ccc(O)c(c1)Oc1ccc(cc1)C[C@@H]3N(C)CC2)N(C)CC4 [berbamine]
MIC [1]: 256 µg/mL (≈ 421 µM)
MIC [2]: 128 µg/mL (≈ 210 µM)
MIC [3]: > 4100 µg/mL
MIC [4]: 256 µg/mL (≈ 421 µM)
MIC [5]: 128 µg/mL (≈ 210 µM)
